Laboratory results as given in patent US9717732B2, “Drug combination” (VERONA PHARMA PLC, priority 2013, dated 2017).

Experiments:
[1] = system: human isolated bronchial tissues pre-contracted with acetylcholine; experiment: Relaxation of human isolated bronchi pre-contracted with acetylcholine (EC70), drugs alone and in combination, synergy analysis; settings: n=5; for slope (nH): 4 parameter logistic fit
Method: Bronchial rings were mounted on hooks in the organ baths where one hook was attached with threaded to a stationary rod and the other hook tied with thread to an isometric force displacement transducer. […] Tallarida, 2001; Goldoni and Johansson, 2007; Boik et al., 2008; Lee, 2010). […] Goodman et al., 2008). E/Emax was expressed as percentage of Emax elicited by the contractile agents; […] The analysis of the potential synergism between RPL554 plus a β2-adrenergic receptor agonist was measured by applying the Berenbaum method, the Bliss Independence (BI) criterion and the Loewe Additivity (LA) model through curved isoboles (Berenbaum, 1977; Greco et al., 1995; Grabovsky and Tallarida, 2004; Tallarida, 2006; Goldoni and Johansson, 2007; Tallarida and Raffa, 2010). […] Lee, 2010). The BI theory for two agents is expressed by the following equation: E(x,y)=Ex+Ey-(Ex*Ey), where E is the fractional effect, and x and y are the concentrations of two compounds in a combination experiment. If the combination effect is higher than the expected value from the above equation, the interaction is considered synergistic, while if this effect is lower, the interaction is antagonistic. […] In this study, the BI equation was characterized by X=RPL554 and Y=β2-adrenergic receptor agonist. […] Using the concept of dose equivalence, the relationship a/A+b/B=1 was reformulated as b+beq (a)=B, where beq is the dose equivalent of a and solving for beq(a) by equating the two individual concentration response curves EA=f(A) and EB=f(B). The additive response (Eab) for each dose combination with respect to B was then calculated by insertion of B into EB=f(B). The difference between the observed relaxation response to the combination doses and the additive response was calculated and analysed using a one sample t-test and for multiple comparisons, the probability was adjusted for multiple comparisons using a Bonferroni correction. For illustrative purposes, the 1:1 dose combinations were analysed for synergy. […] Then, concentration response curves were constructed to test individual compound RPL554, or salbutamol alone; or RPL554 administered in combination with salbutamol in order to produce isobolar graphs (salbutamol:RPL554 and ranging from 10:1 to 1:100) as described elsewhere (Greco et al., 1995; Tallarida, 2001; Goldoni and Johansson, 2007; Boik et al., 2008; Lee, 2010).

[2] = system: Guinea pigs; experiment: Reduction in mean arterial blood pressure after iv. administration; type: in vivo, guinea pig; settings: 20 μg/kg RPL554 iv., control (alone)
Method: (§1) Guinea pigs were anaesthetized and ventilated. Airway obstruction was induced by the intravenous administration of bombesin (2 μg/ml; 5 ml/hr). Bronchodilation was induced by the iv. administration of RPL554 alone at various doses, or in combination with sub maximal dose of salbutamol (20 μg/kg). Doses were selected following studies generating a dose-response curve for both salbutamol to select a dose resulting in approximately 20% reduction in airways obstruction. Total lung resistance (RL) and mean arterial blood pressure were measured. Data are expressed as % reduction in airways obstruction or blood pressure.

[3] = system: anaesthetized rats; experiment: Cardiovascular interaction (safety) study, blood pressure and heart rate, i.v. bolus; type: in vivo, rat
From the text: This study was undertaken to determine whether RPL554 has cardiovascular interactions with a β2-adrenergic receptor agonist (salbutamol). A muscarinic receptor antagonist (atropine) was included for completeness. RPL554 is a dual PDE3/PDE4 inhibitor being developed for treatment of chronic obstructive pulmonary disease (COPD) and asthma as an inhaled bronchodilator with possible anti-inflammatory actions. […] The study design was blind and random with drugs given as pairs five minutes apart in an alternating manner, e.g., RPL554 followed by salbutamol and vice versa. […] Instead they were chosen to test for possible interactions under supra therapeutic conditions.
Doses producing a 15-30 mmHg increase in mean blood pressure (MBP) and 30-60 beats per minute increase in heart rate (HR) were chosen from an initial dose-response study for RPL554 and salbutamol. […] Thereafter, the chosen doses were examined in pairs administered 5 minutes part. […] The intention of the study was to use supra normal conditions in order to challenge for possible interactions under supra therapeutic conditions.
The studies were performed on Sprague-Dawley male rats from Charles River weighing 200-250 grms. […] For the purposes of the experiment the animals were anaesthetized with thiobutabarbital at a dose of 100 mg/kg given by the i.p. route. There was no necessity for supplemental anaesthesia and at the end of the experimental period each rat was sacrificed. The study had two parts: (I) an initial dose ranging study and (II) the interaction study. The drugs studied were: RPL554 (R), salbutamol (S), atropine (A) all dissolved in saline.
An initial dose-ranging study was performed as follows: cumulative dose-response curves for intravenous bolus doses of the three drugs were performed to determine appropriate doses of each of the three drugs for the full study. Doses of RPL554 or salbutamol producing a 15-30 mmHg increase in mean blood pressure (MBP) and 30-60 beats per minute increase in heart rate (HR) were chosen from this initial dose-response study. […] This dose-ranging study involved four rats in which cumulative doses of each of the 3 drugs were given on a dose-doubling basis. Doses of each of the drugs were given as i.v. bolus injections every 5 minutes with 1 hour between different drugs. The order of injections were: for animal 1—S, R, A; animal 2—R, A, S; animal 3—A, S, R and animal 4—R, A, S. As indicated above the doses and routes of injection where chosen as supernormal and above doses producing effects when given by inhalation.
In this study all drugs were given as a single dose by i.v. bolus injection, via a jugular vein cannula, and at a volume of 1 mL/kg. The study design was blind and random with three lines each containing four animals for a total of 12 animals.
Pairs of drugs were given to individual animals on a randomized blind basis using a line by line design where each line contained four rats with injections as follows: R1S2, S1R2, R1A2 and A1R2 (in random order where 1 indicates the first drug given and 2 indicates the second drug given 5 minutes after the first drug). A total of 3 lines were studied thus a total of 12 rats were used and none of the animals had to be replaced.

[4] = system: human isolated bronchial preparations; experiment: Inhibition of EFS-induced contraction of human isolated bronchi; settings: after termination of drug exposure
Method: Regions of macroscopically normal lungs were taken from uninvolved areas resected from 24 subjects (11 male and 13 female, 60.1±1.6 years old) undergoing lobectomy surgery for lung cancer, but without a history of chronic airway disease.
Airways were immediately placed into oxygenated Krebs-Henseleit buffer solution (KH) (mM: NaCl 119.0, KCl 5.4, CaCl2 2.5, KH2PO41.2, MgSO4 1.2, NaHCO3 25.0, glucose 11.7; pH 7.4) containing the cyclooxygenase (COX) inhibitor indomethacin (5.0 μM), and transported at 4° C. from the “Regina Elena National Cancer Institute” or the “Sant'Andrea Hospital” to the Respiratory Research Laboratory in the Surgery and Medicine Faculty of “Tor Vergata University”, Rome, Italy. None of the subjects were chronically treated with theophylline, β2-agonists or glucocorticosteroids. Serum IgE levels determined on the day of surgery were in the normal range. […]
Human bronchi were placed in organ baths containing KH buffer solution (37° C.) medicated with indomethacin (5.0 μM), bubbled with 95% O2/5% CO2 and suspended under passive tension (0.5-1.0 g). […] Changes in isometric tension were measured with a transducer (Fort 10 WPI, Basile, Instruments, Italy) and the tissue responsiveness was assessed by acetylcholine (100 μM); when the response reached a plateau, rings were washed three times and allowed to equilibrate for 45 min. […]

[5] = system: passively sensitized human isolated bronchi; experiment: Contraction induced by histamine in passively sensitized human bronchi; settings: RPL554 100 μM
Method: Human isolated bronchial rings were rotated overnight at room temperature in tubes containing KH buffer solution in the absence (non-sensitized control rings) or the presence of 10% vol^−1 sensitizing serum (sensitized rings) as described elsewhere (Watson et al., 1997; Rabe, 1998). Subjects suffering from atopic asthma (total IgE>250 U^−1 specific against common aeroallergens) during exacerbation provided signed consent for serum donation.
Sera was prepared by centrifugation of whole blood and sera samples were frozen at −80° C. in 200 ml aliquots until required.
The next morning, after removal of adhering alveolar and connective tissues, bronchial rings were transferred into an organ bath containing KH buffer (37° C.) and continuously gassed with a 95% O2/5% CO2. Tissues were pre-incubated for 30 min with RPL554 (1, 10 and 100 μM) and then followed (without washing) by the construction of concentration responses curve to histamine (10 nM-1 mM) in the presence of RPL554.
Appropriate curve-fitting to a sigmoidal model was used to calculate the effect (E), the Emax and the concentration required to cause a 50% maximal effect (EC50). The equation used was log [agonist] vs. response, Variable slope, expressed as Y=Bottom+(Top−Bottom)/{1+10^[(Log EC50−X)*HillSlope]} (Motulsky and Christopoulos, 2004; Goodman et al., 2008). […]

[6] = system: guinea pig airways; experiment: Reversal of bombesin-induced airways obstruction (total lung resistance); type: in vivo; settings: salbutamol 20 μg/kg alone
Method: as §1

| Structure (SMILES) | slope (nH) ([1]; mean±SD) | reduction in mean arterial blood pressure [2] | Time to peak response, blood pressure [3] | Time to peak response, heart rate [3] | Duration of inhibition of EFS contractile response after exposure to drug [4] | Effect on contraction induced by histamine [5] | EC50 ([1]; Homo sapiens, geomean (95% CI), acetylcholine EC70, read-out: potency (EC50), relaxation) | Emax ([1]; Homo sapiens, mean±SD, acetylcholine EC70, percentage of papaverine (500 μM) induced relaxation) | reduction in airways obstruction [6] |
| --- | --- | --- | --- | --- | --- | --- | --- | --- | --- |
| COc1cc2c(cc1OC)-c1cc(=Nc3c(C)cc(C)cc3C)n(CCNC(N)=O)c(=O)n1CC2 [RPL554, 9,10-Dimethoxy-2-(2,4,6-trimethylphenylimino)-3-(N-carbamoyl-2-aminoethyl)-3,4,6,7-tetrahydro-2H-pyrimido[6,1-a]isoquinolin-4-one] | 2.271±0.713 | 37.3±6.7% | 60 to 80 s | 2 to 4.5 min | at least 5 h | completely abolished the contraction induced by histamine |  |  |  |
| CN1[C@@H]2CC[C@H]1C[C@@H](OC(=O)C(CO)c1ccccc1)C2 (some centres unmarked) [atropine] |  |  | 240 s | 4 min |  |  |  |  |  |
| CC(C)(C)NCC(O)c1ccc(O)c(CO)c1 (centres unmarked) [salbutamol] | 1.572±0.482 |  | approximately 20 seconds | ~1 min |  |  | 283 nM | 78 ± 11% | 34.2±11.1% |
